According to patent US4771076A, “[(2-substituted 1,2-dihydro-1-oxo-1H-inden-5-yl)oxy]alkanesulfonic acids and salts thereof” (Merck & Co., Inc., priority 1987, dated 1988):
pIC50: −log10 of the molar value.

Test system: cerebrocortical cat brain tissue slice
Assay: In vitro Cerebrocortical Cat Brain Tissue Slice Assay (inhibition of HCO3^- -stimulated swelling)
Format: cell-based
Conditions: Felis catus, 1 h, 27 mM K^+, 10 mM HCO3^-, 37° C., 60 min incubation
Procedure: See, e.g., Bourke et al., Neurochem. Res., 8, 5 (1983), and Cragoe et al., J. Med. Chem., 25, 567 (1982).
In Vitro Cerebrocortical Cat Brain Tissue Slice Assay
Adult cats of 2-3 kg body weight were employed in tissue slice studies. Prior to sacrifice, the animals were anesthetized with ketamine hydrochloride, 10 mg/kg intramuscularly. Eight (three control, five experimental) pial surface cerebrocortical tissue slices (0.5 mm thick; approximately 150 mg initial fresh weight) were cut successively with a calibrated Stadie-Riggs fresh tissue microtome without moistening and weighed successively on a torsion balance. […]
Following the 60-minute incubation period, tissue slices were separated from incubation medium by filtration, reweighed, and homogenized in 1N HClO4 (10% w/v) for electrolyte analysis. […] Control slice swelling is expressed as microliters per gram initial preswelling fresh weight. The effectiveness of an inhibitor at a given concentration was measured by the amount of HCO3^- -stimulated swelling that occurred in its presence, computed as a percent of the maximum possible and is reported as an IC50, (See, e.g., Table I (Example 6)). Tissue and media Na^+ and K^+ levels were determined by emission flame photometry with Li^+ internal standard; Cl^- levels were determined by amperometric titration. Tissue viability during incubation is monitored by manometry.

SMILES | pIC50
CC1(C2CCCC2)Cc2cc(OCCCS(=O)(=O)O)c(Cl)c(Cl)c2C1=O (centres unmarked) [Example 1, Sodium 3-[(6,7-dichloro-2-cyclopentyl-2-methyl-1-oxo-2,3-dihydro-1H-inden-5-yl)oxy]propanesulfonate hydrate] | 7.70
CC1(C2CCCC2)Cc2cc(OCCCS(=O)(=O)O)c(Cl)c(Cl)c2C1=O (single isomer, unassigned) [Example 2, Sodium (+)3-[(6,7-dichloro-2-cyclopentyl-2-methyl-1-oxo-2,3-dihydro-1H-inden-5-yl)oxy]propanesulfonate hydrate] | 7.70
